In ChEMBL document CHEMBL1201862, “PubChem BioAssay data set” (2004):
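A five-concentration, 48-hour dose response in 96-well plates underlies each endpoint, interpolated linearly between surrounding concentrations. GI50 marks 50% less growth.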 Active and inactive are the calls of the source. Cut-off read from the data, not from the text of the source: active = GI50 up to about 1.1 µM and inactive = higher.

What was measured:
Experiment in all cases: inhibition of tumour cell growth, NCI panel, 48 h
DMS-273 = test system: DMS-273
DLD-1 = test system: DLD-1
SNB-78 = test system: SNB-78
M19-MEL = test system: M19-MEL
KM-20L2 = test system: KM-20L2
DMS-114 = test system: DMS-114
HOP-18 = test system: HOP-18
XF498 = test system: XF498
RXF 631 = test system: RXF 631

Compound	GI50 (DMS-273)	GI50 (DLD-1)	GI50 (SNB-78)	GI50 (M19-MEL)	GI50 (KM-20L2)	GI50 (DMS-114)	GI50 (HOP-18)	GI50 (XF498)	GI50 (RXF 631)
CCCCNC(=O)CCN(C(=O)O)S(=O)(=O)c1ccc(NC(=O)c2ccccc2)cc1	30.4 µM (inactive)	> 100 µM (inactive)	> 100 µM (inactive)	79.4 µM (inactive)	> 100 µM (inactive)	> 100 µM (inactive)	> 100 µM (inactive)	> 100 µM (inactive)	
Cc1ccc(NC(=O)COC(=O)c2cccc3c(=O)c4ccccc4[nH]c23)cc1	23.6 µM (inactive)	14.6 µM (inactive)	27.6 µM (inactive)	46.7 µM (inactive)	53.2 µM (inactive)	34.2 µM (inactive)	> 100 µM (inactive)	41 µM (inactive)	24.4 µM (inactive)
COc1ccc(C2=CN3CCC[C@H]3C=C2c2cc(O)c(OC)c(OC)c2)cc1OC	0.00354 µM (active)	0.00316 µM (active)	0.00385 µM (active)	0.00274 µM (active)	0.00887 µM (active)	0.00385 µM (active)	0.00427 µM (active)		
Cc1nc2c(s/c(=N\N)n2-c2ccccc2)c(=O)n1C	> 100 µM (inactive)		> 100 µM (inactive)	> 100 µM (inactive)	> 100 µM (inactive)	> 100 µM (inactive)		> 100 µM (inactive)	
CCOC(=O)NC(=O)c1cn(CCOCCOC(=O)NCCCCCCNC(=O)OCCOCCn2cc(C(=O)NC(=O)OCC)c(=O)[nH]c2=O)c(=O)[nH]c1=O	> 100 µM (inactive)	> 100 µM (inactive)	> 100 µM (inactive)	> 100 µM (inactive)	> 100 µM (inactive)	> 100 µM (inactive)	> 100 µM (inactive)		> 100 µM (inactive)
COC(=O)c1ccc(Cl)cc1NC(=O)C1CCCCC1	> 100 µM (inactive)		> 100 µM (inactive)	> 100 µM (inactive)	> 100 µM (inactive)	> 100 µM (inactive)			
CNC(=O)OCc1c2ccncc2c(C)c2c1[nH]c1ccc(OC)cc12	0.379 µM (active)		0.119 µM (active)	0.344 µM (active)	0.227 µM (active)	0.226 µM (active)	0.254 µM (active)	1.03 µM (active)	0.675 µM (active)
Nc1ccc(C(=O)Nc2ccccc2N)cc1 [DINALINE]	59.7 µM (inactive)	44.3 µM (inactive)	> 100 µM (inactive)	25.7 µM (inactive)		34.5 µM (inactive)	36.7 µM (inactive)	> 100 µM (inactive)	37.4 µM (inactive)
O=C1C(=O)C(Br)(Br)C(Br)=C1Br	22.3 µM (inactive)	18.8 µM (inactive)		19.1 µM (inactive)	15 µM (inactive)	18.8 µM (inactive)	15.6 µM (inactive)		37.9 µM (inactive)
COC(=O)/C(=N\NC(C)(C)C)C(C(=O)OC)C(=O)C(=O)Nc1cc(Cl)ccc1Cl (configuration not stated)	> 100 µM (inactive)	> 100 µM (inactive)	> 100 µM (inactive)	> 100 µM (inactive)	> 100 µM (inactive)	> 100 µM (inactive)	> 100 µM (inactive)	> 100 µM (inactive)	> 100 µM (inactive)
CC1(C(=O)NCCN(CCNC(=O)C2(C)CC3(C)CC(C)(C2)C(=O)NC3=O)CCNC(=O)C2(C)CC3(C)CC(C)(C2)C(=O)NC3=O)CC2(C)CC(C)(C1)C(=O)NC2=O (configuration not stated)	> 100 µM (inactive)		> 100 µM (inactive)	> 100 µM (inactive)	> 100 µM (inactive)	> 100 µM (inactive)	94.4 µM (inactive)	> 100 µM (inactive)	
COC1OC(COS(=O)(=O)c2ccc(C)cc2)C(O)C(OS(=O)(=O)c2ccc(C)cc2)C1OS(=O)(=O)c1ccc(C)cc1 (configuration not stated)	> 100 µM (inactive)	> 100 µM (inactive)	> 100 µM (inactive)	> 100 µM (inactive)	> 100 µM (inactive)	> 100 µM (inactive)	> 100 µM (inactive)		> 100 µM (inactive)
Cc1nn(C(=O)CC(=O)Nc2ccc(Cl)cc2)c(C)c1/N=N/c1ccccc1C(=O)O	> 100 µM (inactive)	> 100 µM (inactive)	> 100 µM (inactive)	> 100 µM (inactive)	> 100 µM (inactive)	> 100 µM (inactive)			
C/C=C1\CN2CCc3c([nH]c4ccccc34)C2C=C1CCO (configuration not stated)	> 340 µM (inactive)	> 340 µM (inactive)		> 340 µM (inactive)	> 340 µM (inactive)	> 340 µM (inactive)		208 µM (inactive)	> 340 µM (inactive)
O=C(O)CNS(=O)(=O)c1ccc(NC(=O)c2cccc([N+](=O)[O-])c2)cc1	> 100 µM (inactive)	> 100 µM (inactive)		> 100 µM (inactive)	> 100 µM (inactive)		> 100 µM (inactive)	> 100 µM (inactive)	> 100 µM (inactive)
CO[C@H]1[C@H](O)[C@H](O[C@H]2CC[C@@]3(C)[C@H](CC[C@@H]4[C@@H]3CC[C@]3(C)[C@@H](C5=CC(=O)OC5)CC[C@]43O)C2)O[C@@H](C)[C@@H]1O [NERIIFOLIN]	0.000548 µM (active)	0.00184 µM (active)	0.000552 µM (active)	0.00363 µM (active)	0.00311 µM (active)	0.000138 µM (active)	0.000476 µM (active)		
C=C1C(C)C2C(Cc3ccccc3)NC(=O)C23OC(=O)/C=C\CC(=O)CCC(C)C/C=C/C3C1O (configuration not stated)	2.34 µM (inactive)	1.18 µM (inactive)	0.36 µM (active)	4.3 µM (inactive)	3.66 µM (inactive)	2.42 µM (inactive)	0.326 µM (active)	0.287 µM (active)	
CC(=O)n1c2ccccc2c2nc3nc(Oc4ccc(C)cc4)c4ccccc4c3cc21	> 100 µM (inactive)	> 100 µM (inactive)	42.5 µM (inactive)	> 100 µM (inactive)	> 100 µM (inactive)	> 100 µM (inactive)			
CNS(=O)(=O)NNS(=O)(=O)c1ccccc1	> 100 µM (inactive)	> 100 µM (inactive)		> 100 µM (inactive)	> 100 µM (inactive)	> 100 µM (inactive)	> 100 µM (inactive)	> 100 µM (inactive)	
O=C(/C=C/c1ccccc1)/C=C/c1ccccc1	38.7 µM (inactive)	15.1 µM (inactive)	92.9 µM (inactive)	20.6 µM (inactive)	22.1 µM (inactive)	21.6 µM (inactive)	28.6 µM (inactive)		32.8 µM (inactive)
O=C(OCCOCCOC(=O)c1c[nH]cc1-c1ccccc1)c1c[nH]cc1-c1ccccc1	15.9 µM (inactive)	24.8 µM (inactive)	19.3 µM (inactive)	18.7 µM (inactive)	21.9 µM (inactive)	13.8 µM (inactive)		19.9 µM (inactive)	
C=C(CCCCC)CN1CCCC1[C@@](C)(O)CC(=O)OCC (some centres not stated)	> 100 µM (inactive)	> 100 µM (inactive)	> 100 µM (inactive)	> 100 µM (inactive)	> 100 µM (inactive)	> 100 µM (inactive)	> 100 µM (inactive)	> 76.6 µM (inactive)	
C1C[N+]23CCC[N+]2(C1)CCC3 (configuration not stated)	> 100 µM (inactive)	> 100 µM (inactive)	> 100 µM (inactive)	> 100 µM (inactive)	> 100 µM (inactive)	> 100 µM (inactive)	> 100 µM (inactive)		> 100 µM (inactive)
O=C1CCC2(c3ccc(Cl)cc3)Nc3cc(Cl)ccc3N12 (configuration not stated)	10.4 µM (inactive)	5.75 µM (inactive)	15.3 µM (inactive)	12.8 µM (inactive)	15.2 µM (inactive)	7.4 µM (inactive)	1.25 µM (inactive)	2.31 µM (inactive)	14.7 µM (inactive)
COc1cc2c(cc1OC)C1Cc3cc(OC)c(OC)cc3C(C2)N1C		> 100 µM (inactive)	> 100 µM (inactive)		> 100 µM (inactive)			> 100 µM (inactive)	
